Consider ten compounds from ChEMBL document CHEMBL3758181, “New approach towards the synthesis of selenosemicarbazones, useful compounds for Chagas' disease” (Eur J Med Chem, 2016).

Data set [1] relates to Trypanosoma cruzi. Kind of data set: Antitrypanosomal activity against epimastigote stage of Trypanosoma cruzi Dm28c after 72 hrs by resazurin dye based microplate reader analysis. In kind it is functional. A general note: Alamar Blue is a resazurin reagent that responds to reducing activity.
A short description of data set [2]: Selectivity index, ratio of CC50 for African green monkey Vero cells to IC50 for epimastigote stage of Trypanosoma cruzi Dm28c. The data set is classed as functional.
Data set [3] has as its system Trypanosoma cruzi. The experiment in a line: Antitrypanosomal activity against trypomastigotes stage of Trypanosoma cruzi strain CL Brener infected in acute chagas BALB/c mouse model assessed as survival rate at 10 mg/kg/day, po administered for 14 days started on day 9 post infection measured at 30 to 60 days. In kind it is functional.
Data set [4] in a line: Toxicity in acute chagas BALB/c mouse model infected with trypomastigotes stage of Trypanosoma cruzi strain CL Brener assessed as mortality at 50 mg/kg/day, po administered for 14 days started on day 9 post infection measured on day 20. In kind it is organism-based. The conditions noted are these: in vivo.
The test system of data set [5] is Trypanosoma cruzi. The experiment in a line: Antitrypanosomal activity against trypomastigotes stage of Trypanosoma cruzi strain CL Brener infected in acute chagas BALB/c mouse model assessed as reduction in parasitaemia at 10 mg/kg/day, po administered for 14 days started on day 9 post infection measured at 30 to 60 days by Neubauer chamber analysis relative to control. The data set is classed as functional. More on the design: scale not given: the % may be the effect or the level left.

The test system of data set [6] is Trypanosoma cruzi. The experiment in a line: Antitrypanosomal activity against trypomastigotes stage of Trypanosoma cruzi strain CL Brener infected in acute chagas BALB/c mouse model assessed as time for maximum parasitaemia parasitaemia at 10 mg/kg/day, po administered for 14 days started on day 9 post infection by Neubauer chamber analysis (reference value: 26 days). The data set is classed as functional.

The test system of another data set is Mus musculus. Kind of data set: Toxicity in acute chagas BALB/c mouse model infected with trypomastigotes stage of Trypanosoma cruzi strain CL Brener assessed as mortality at 50 mg/kg/day, po administered for 14 days started on day 9 post infection measured at 30 to 60 days. In kind it is organism-based. The settings on record: in vivo.
For data set [7], the system named is Trypanosoma cruzi. Kind of data set: Antitrypanosomal activity against trypomastigotes stage of Trypanosoma cruzi strain CL Brener infected in acute chagas BALB/c mouse model assessed as survival rate at 50 mg/kg/day, po administered for 14 days started on day 9 post infection measured at 30 to 60 days. The data set is classed as functional, organism-based.

Activity calls are given as the source filed them. No cut-off for these calls is given here.

A word on the IC50: it is the midpoint of a concentration-inhibition curve. In the data set with Trypanosoma cruzi [1], `C/C(=N\NC(N)=[Se])c1ccc(Cl)c(Cl)c1` displayed an IC50 of 50.2 µM.

Turning to `CC/C(=N\NC(N)=[Se])c1cccc(C(F)(F)F)c1`, the IC50 in the data set on Trypanosoma cruzi [1] came to 6.5 µM.

In general, mortality refers to the percentage killed. On to `C/C(=N\NC(N)=[Se])c1cccc(Br)c1`, for which the IC50 with Trypanosoma cruzi [1] is 1.2 µM. Further, in data set [2], the “Ratio CC50/IC50” value stood at 39. For the same compound, the survival at 10 mg/kg/day in the data set on Trypanosoma cruzi [3] stood at 71%. The mortality at 336 h in data set [4] was 100%. Moreover, the Activity in the data set with Trypanosoma cruzi [5] was 50%. In addition, in the data set on Trypanosoma cruzi [6], the Time came to 26 days.

On to `C/C(=N\NC(N)=[Se])C(C)C`, for which inhibition in the data set with Trypanosoma cruzi [1] was half-maximal at 50.2 µM (IC50).

Turning to `COc1ccc(/C=N/NC(N)=[Se])cc1`, the IC50 in the data set with Trypanosoma cruzi [1] worked out at 25.5 µM.

In the data set with Trypanosoma cruzi [1], `CN(C)c1ccc(/C=N/NC(N)=[Se])cc1` registered an IC50 of 26.2 µM.

In the data set on Trypanosoma cruzi [1], `C/C(=N\NC(N)=[Se])c1ccccc1` returned an IC50 of 12.4 µM.

In the data set with Trypanosoma cruzi [1], `C/C(=N\NC(N)=[Se])c1cccc(Cl)c1` showed an IC50 of 12.5 µM.

In the data set on Trypanosoma cruzi [1], `C/C(=N\NC(N)=[Se])c1cccc(C)c1` had a 50% inhibitory concentration (IC50) of 12.2 µM.

For the compound `O=C(Cn1ccnc1[N+](=O)[O-])NCc1ccccc1` [BENZNIDAZOLE], the IC50 in the data set with Trypanosoma cruzi [1] was 12.5 µM. Further, in data set [2], the “Ratio CC50/IC50” value came to 25. Besides, in the data set on Mus musculus, the Activity entry is reported as “Non-toxic”. For the same compound, the outcome in the data set with Trypanosoma cruzi [7] was Active.
